Assay results as given in US11045441B2, “Use of retinoic acid and analogs thereof to treat central neural apneas” (Wisconsin Alumni Research Foundation, priority 2015, dated 2021).

Assays:
Type in all cases: in vivo
[1] = system: apnea and hypopnea events; experiment: Chronic intermittent hypoxia (CIH) model, diaphragm EMG recording of apneic and hypoapneic events; conditions: rats; intraperitoneal 500 mcg/kg daily during 7 day CIH plus day 8 dose; FIG. 5
Text: Briefly, the experimental and control animals were placed in adjoining, identical chambers that were maintained at room temperature and were large enough to allow unimpeded movement. The fraction of inspired oxygen in each chamber was regulated by microprocessor-controlled miniature solenoids attached to each chamber by high-pressure tubing. For the CIH protocol, the chamber was flushed with 100% nitrogen for 30 sec followed by 30 sec of 100% O2 at a low flow rate. The time course of change in the fraction of inspired oxygen for the experimental chamber was determined using an oxygen analyzer (Sensormedics, Milan, Italy): a decline to a nadir of 6.5 to 7% oxygen, remaining at that level for 5 to 7 sec, and then gradually increasing to 21% over the next 30 sec during which oxygen flowed into the chamber. This cycle was repeated each minute over 8 daytime hours (8 to 9 am to 4 to 5 pm) for 7 days. Control rats were exposed to the same sequence of events as experimental rats, with the exception that room air was used instead of nitrogen and oxygen. […] The experimental animals were administered intra peritoneal trans-retinoic acid (500 mcg/kg) daily throughout the 7 day CIH exposure with an additional dose given the morning of diaphragm electromyography (EMG) recordings (day 8; total of 8 injections) […] and hypoapneic events were recorded via conventional diaphragm EMG measurements.

[2] = system: phrenic and hypoglossal nerve activity; experiment: Protocol 2: central neural apnea model with concurrent hypoxia, rats pretreated with retinoic acid
Experimental: Respiratory-related activity was recorded from the left phrenic and hypoglossal nerves in urethane-anesthetized (1.7 g/kg), vagotomized, paralyzed and mechanically ventilated rats (see Strey et al., 2012 for details). Rats are slightly hyperventilated, so a small amount of inspired CO2 was delivered to achieve target, normal PCO2. A pre-study apneic threshold test was performed. The apneic threshold was determined by lowering arterial PCO2 until phrenic respiratory activity ceased. […] Following 15 min of stable phrenic and hypoglossal burst discharge, baseline phrenic and hypoglossal burst amplitudes and blood gases were measured. Rats were then subjected to one of the following protocols:
Protocol 2) Five (5) brief central neural apneas followed by a 25 sec ventilator apnea (nadir O2 saturation ˜70%) in rats pretreated with vehicle (“control”) or retinoic acid (see below for details). The results are depicted in FIGS. 2A, 2B, and 3.
Protocol 1 tests the hypothesis that retinoic acid is sufficient to elicit inactivity-induced respiratory motor facilitation. Protocol 2 tests the hypothesis that retinoic acid administration can circumvent hypoxia-induced constraints on inactivity-induced respiratory motor facilitation. Phrenic burst amplitude was recorded for up to 60 min following treatment, and an apneic threshold test was performed at the end of the protocol.
To model a central neural apnea in anesthetized rats, inflow of CO2 was ceased by stopcock valve to reduce arterial PCO2 below the apneic threshold. Following a 10 second period of no phrenic firing activity (signaling absent breaths) the ventilator was turned off for 25 seconds to model the hypoxia that would normally be experienced in a human. At the end of 25 seconds, the ventilator was turned back on and PaCO2 was restored. This experience was repeated five times, with five minutes separating each episode.

phrenic nerve activity = experiment: Protocol 1: intrathecal retinoic acid injections, phrenic nerve recording in anesthetized rats; conditions: three 10 μL intrathecal injections, 50 μM each, 60 min after final injection, vs vehicle control, FIGS. 1A, 1B
Experimental: Respiratory-related activity was recorded from the left phrenic and hypoglossal nerves in urethane-anesthetized (1.7 g/kg), vagotomized, paralyzed and mechanically ventilated rats (see Strey et al., 2012 for details). Rats are slightly hyperventilated, so a small amount of inspired CO2 was delivered to achieve target, normal PCO2. A pre-study apneic threshold test was performed. The apneic threshold was determined by lowering arterial PCO2 until phrenic respiratory activity ceased. […] Following 15 min of stable phrenic and hypoglossal burst discharge, baseline phrenic and hypoglossal burst amplitudes and blood gases were measured. Rats were then subjected to one of the following protocols: Protocol 1) Three (3) 10 μL intrathecal injections (50 μM each) of retinoic acid or three (3) 10 μL of vehicle (aCSF in 10% DMSO). […] Protocol 1 tests the hypothesis that retinoic acid is sufficient to elicit inactivity-induced respiratory motor facilitation. […] Phrenic burst amplitude was recorded for up to 60 min following treatment, and an apneic threshold test was performed at the end of the protocol.

SMILES: CC1=C(/C=C/C(C)=C/C=C/C(C)=C/C(=O)O)C(C)(C)CCC1 [retinoic acid, all-trans retinoic acid]
- number of apnea and hypopnea events (diaphragm EMG) [1]: reduces the number of apnea and hypopnea events
- CO2 apneic threshold ([2]; anesthetized rats, given before central neural apnea, 60 min post injection, vs control, FIG. 3): reduced the CO2 apneic threshold relative to a control groups
- phrenic burst amplitude ([2]; anesthetized rats, intrathecal 10 μL, 50 μM before central neural apneas with hypoxia, 60 min after, FIG. 2A): significantly higher than pre-stimulation levels
- hypoglossal burst amplitude ([2]; anesthetized rats, intrathecal 10 μL, 50 μM before central neural apneas with hypoxia, 60 min after, FIG. 2B): significantly higher than pre-stimulation levels
- enhanced phrenic motor output following inactivity with concurrent hypoxia ([2]; pretreatment, intermittent inactivity with concurrent hypoxia, FIG. 4C): rescues then enhanced phrenic motor output
- phrenic nerve activity (phrenic motor output) as a percentage of baseline activity (phrenic nerve activity): persistently increases phrenic motor output
- phrenic nerve activity (phrenic motor output) as a percentage of baseline activity (phrenic nerve activity; listed as trans-retinoic acid): significantly higher than control group
